Source: patent publication US20260273025A1, “TREATMENT AND PREVENTION OF OSTEOPOROSIS IN HIGH BODY MASS INDEX INDIVIDUALS” (Radius Health, Inc., priority 2021, published 2026)
Entries after “also recorded” stand apart in the source; their conditions may differ.

Experiments:
[1] = tested on: postmenopausal osteoporotic women; assay: ACTIVE Phase 3 trial, post hoc high BMI subgroup: new vertebral fractures; type: in vivo, human; settings: overweight population, 18 months; for relative risk reduction of new vertebral fractures versus placebo: abaloparatide 80 μg or teriparatide 20 μg daily subcutaneous
Procedure: (§1) The ACTIVE pivotal Phase 3 fracture prevention trial for the PTHrP analogue abaloparatide, Study BA058-05-003 (see ClinicalTrials.gov), was a randomized, double-blind, placebo-controlled trial in postmenopausal osteoporotic women randomized to receive daily doses of one of the following for 18 months: 80 micrograms (μg) of abaloparatide; a matching placebo; or the approved daily dose of 20 μg of teriparatide. Treatment with abaloparatide at a daily dose of 80 μg or placebo remained blinded to all parties throughout the study. Teriparatide used was a proprietary prefilled drug and device combination that could not be repackaged. Therefore, its identity could not be blinded to treating physicians and patients once use began. Study medication was self-administered daily by subcutaneous injection for a maximum of 18 months. All enrolled patients also received calcium and vitamin D supplementation from the time of enrollment until the end of the treatment period. It was recommended to patients that they also continue these supplements through the one-month follow-up period.
(§2) The trial completed enrollment in March 2013 with 2,463 patients at 28 medical centers in 10 countries in the United States, Europe, Latin America, and Asia. In a post hoc analysis, a subgroup of overweight patients, patients with high BMI (≥27 kg/m^2, ≥24 kg/m^2 for Asian patients) was evaluated. The baseline characteristics of this sub-group of patients are detailed in Table 1 below.
(§3) The study enrolled otherwise healthy ambulatory women aged 49 to 86 (inclusive) who had been postmenopausal for at least five years, met the study entry criteria, and had provided written informed consent. […] All patients were to be in good general health as determined by medical history, physical examination (including vital signs), and clinical laboratory testing. This study population contained a patient population reflective of the type of severe osteoporosis patients that specialists would be expected to treat in their practices.
The study endpoints included BMD, new vertebral fractures, nonvertebral fractures (fractures excluding those of the spine, sternum, patella, digits, skull, and face and those with high trauma), any clinical fractures (all fractures causing a patient to seek medical care), and major osteoporotic fractures (fractures of the upper arm, wrist, hip, or clinical spine). […] Time to first incident nonvertebral, clinical, major osteoporotic, and wrist fracture assessed using Kaplan-Meier (KM) method; log-rank test (intent-to-treat [ITT] population). Change from baseline BMD evaluated for total hip, femoral neck, and lumbar spine (missing data points imputed by last observation carried forward; ITT population).

[2] = tested on: postmenopausal osteoporotic women; assay: ACTIVE Phase 3 trial, post hoc high BMI subgroup: nonvertebral, clinical, major osteoporotic and wrist fractures (Kaplan-Meier); type: in vivo, human
Procedure: as §1, §2, §3
(§4) The study endpoints included BMD, new vertebral fractures, nonvertebral fractures (fractures excluding those of the spine, sternum, patella, digits, skull, and face and those with high trauma), any clinical fractures (all fractures causing a patient to seek medical care), and major osteoporotic fractures (fractures of the upper arm, wrist, hip, or clinical spine). New vertebral fracture compared using Fisher exact test (modified intent-to-treat [mITT] population; participants with pretreatment/postbaseline spine x-rays). Time to first incident nonvertebral, clinical, major osteoporotic, and wrist fracture assessed using Kaplan-Meier (KM) method; log-rank test (intent-to-treat [ITT] population). Change from baseline BMD evaluated for total hip, femoral neck, and lumbar spine (missing data points imputed by last observation carried forward; ITT population).

[3] = tested on: postmenopausal osteoporotic women; assay: ACTIVE Phase 3 trial, post hoc high BMI subgroup: safety, treatment-emergent adverse events; type: in vivo, human; settings: for Creatine renal clearance increased, (%): human
Procedure: as §1, §2
Safety evaluations performed in the ACTIVE trial included physical examinations, vital signs, 12-lead electrocardiograms, or ECGs, clinical laboratory tests and monitoring, and recording of adverse events. Specific safety assessments included pre-dose and post-dose (four hours) determination of serum calcium, determination of creatinine clearance, post-dose ECG assessments at selected visits, and assessments of postural hypotension (60 minutes post-dose) at selected clinic visits.
The ACTIVE trial also evaluated several potential safety measures. The treatment-emergent adverse events (TEAEs) reported by the overweight patients are summarized below in Table 2 for groups treated with placebo, abaloparatide, and teriparatide, respectively.

[4] = tested on: postmenopausal osteoporotic women; assay: ACTIVE Phase 3 trial, post hoc high BMI subgroup: BMD percent change from baseline; type: in vivo, human; settings: for BMD increase as compared to placebo: total hip, femoral neck, lumbar spine
Procedure: as §1, §2, §3, §4

[5] = tested on: subjects treated with abaloparatide; assay: Abaloparatide for 18 months followed by anti-resorptive therapy: fracture risk; type: in vivo, human; settings: abaloparatide 18 months followed by anti-resorptive therapy (e.g., alendronate for 6 months)
[6] = tested on: ovariectomy-induced osteopenic monkeys; settings: cited from earlier work
[7] = tested on: subjects treated with abaloparatide; assay: Trabecular bone score (TBS) in treated subjects; type: in vivo, human
Text: TBS is also a predictor of fragility fractures of the spine and hip in postmenopausal overweight women independent of BMD and other major clinical risk factors. As such, it captures additional patients at risk of fracture that are missed by BMD alone, and together with BMD more accurately captures bone strength.

[8] = tested on: ovariectomy-induced osteopenic rats; settings: cited from earlier work
[9] = tested on: subjects treated with abaloparatide; assay: Bone turnover markers PINP and CTX in treated subjects; type: in vivo, human
[10] = overweight population, 18 months
[11] = overweight patients, abaloparatide n = 262, teriparatide n = 281
[12] = overweight patients, 6, 12 and 18 months

CC[C@H](C)[C@H](NC(=O)[C@H](CCC(=O)O)NC(=O)[C@H](CO)NC(=O)[C@@H](NC(=O)[C@@H](N)CO)C(C)C)C(=O)N[C@@H](CCC(N)=O)C(=O)N[C@@H](CC(C)C)C(=O)N[C@@H](CCSC)C(=O)N[C@@H](Cc1cnc[nH]1)C(=O)N[C@@H](CC(N)=O)C(=O)N[C@@H](CC(C)C)C(=O)NCC(=O)N[C@@H](CCCCN)C(=O)N[C@@H](Cc1cnc[nH]1)C(=O)N[C@@H](CC(C)C)C(=O)N[C@@H](CC(N)=O)C(=O)N[C@@H](CO)C(=O)N[C@@H](CCSC)C(=O)N[C@@H](CCC(=O)O)C(=O)N[C@@H](CCCN=C(N)N)C(=O)N[C@H](C(=O)N[C@@H](CCC(=O)O)C(=O)N[C@@H](Cc1c[nH]c2ccccc12)C(=O)N[C@@H](CC(C)C)C(=O)N[C@@H](CCCN=C(N)N)C(=O)N[C@@H](CCCCN)C(=O)N[C@@H](CCCCN)C(=O)N[C@@H](CC(C)C)C(=O)N[C@@H](CCC(N)=O)C(=O)N[C@@H](CC(=O)O)C(=O)N[C@H](C(=O)N[C@@H](Cc1cnc[nH]1)C(=O)N[C@@H](CC(N)=O)C(=O)N[C@@H](Cc1ccccc1)C(=O)O)C(C)C)C(C)C [Teriparatide, teriparatide]
new vertebral fractures, reduction vs. placebo [1]: significant reduction
relative risk reduction of new vertebral fractures versus placebo [1]: 74%
major osteoporotic fractures (MOF), reduction versus placebo (Kaplan-Meier estimated cumulative incidence) [2, 10]: Significant reduction
non-vertebral fractures (NVF), reduction versus placebo (Kaplan-Meier estimated cumulative incidence) [2, 10]: Significant reduction
Creatine renal clearance increased, (%) ([3]; in vivo): (4.6) %
Arthralgia, (%) ([3]; in vivo): (7.1) %
Back pain, (%) ([3]; in vivo): (7.5) %
Discontinuations, (%) ([3]; in vivo): (7.5) %
Dizziness, (%) ([3]; in vivo): (8.2) %
Headache, (%) ([3]; in vivo): (6.8) %
Hypercalciuria, (%) ([3]; in vivo): (9.3) %
Hypertension, (%) ([3]; in vivo): (6.4) %
Nasopharyngitis, (%) ([3]; in vivo): (5.3) %
Nausea, (%) ([3]; in vivo): (3.9) %
Pain in extremity, (%) ([3]; in vivo): (3.6) %
Serious TEAEs, (%) ([3]; in vivo): (13.9) %
≥1 TEAE, (%) ([3]; in vivo): (89.3) %
Deaths, (%) [3, 11]: (0.4) %
Influenza, (%) [3, 11]: (3.9) %
Upper respiratory tract infection, (%) [3, 11]: (9.6) %
Urinary tract infection, (%) [3, 11]: (6.8) %
delay compared with the abaloparatide group to achieve the same level of BMD increase at total hip and femoral neck ([4]; overweight patients): about 6 months
BMD increase as compared to placebo [4, 12]: significantly greater BMD increase

abaloparatide
new vertebral fractures, reduction vs. placebo [1]: statistically significant reduction; also recorded: significant risk reduction
relative risk reduction of new vertebral fractures versus placebo [1]: 81%
fracture risk versus placebo for 18 months followed by similar anti-resorptive therapy [5]: significant reduction
bone loss [6]: complete reversal of bone loss
clinical fractures, reduction versus placebo [2, 10]: statistically significant reduction; also recorded: numerical reduction
major osteoporotic fractures (MOF), reduction versus placebo (Kaplan-Meier estimated cumulative incidence) [2, 10]: statistically significant reduction; also recorded: significant risk reduction
non-vertebral fractures (NVF), reduction versus placebo (Kaplan-Meier estimated cumulative incidence) [2, 10]: statistically significant reduction; also recorded: significant risk reduction
wrist fracture, reduction versus placebo [2, 10]: numerical reduction
effect on NVF, clinical fractures, MOF and wrist fractures compared with teriparatide ([2]; overweight population, all categories): significantly better than teriparatide
risk of major osteoporotic fracture and any clinical fracture, irrespective of baseline fracture probability (FRAX) ([2]; postmenopausal overweight women): significantly decrease
trabecular bone score (TBS) ([7]; daily dose of 20 μg, 40 μg or 80 μg for 12 weeks to 24 weeks): significantly increase TBS
trabecular bone score (TBS) ([7]; human, in vivo): significant increase
bone loss [8]: complete reversal of bone loss
Creatine renal clearance increased, (%) ([3]; in vivo): (5.7) %
Arthralgia, (%) ([3]; in vivo): (9.2) %
Back pain, (%) ([3]; in vivo): (8.0) %
Discontinuations, (%) ([3]; in vivo): (5.7) %
Dizziness, (%) ([3]; in vivo): (11.1) %
Urinary tract infection, (%) ([3]; in vivo): (6.9) %
≥1 TEAE, (%) ([3]; in vivo): (91.6) %
Deaths, (%) [3, 11]: (0.8) %
Headache, (%) [3, 11]: (5.0) %
Hypercalciuria, (%) [3, 11]: (9.5) %
Hypertension, (%) [3, 11]: (9.5) %
Influenza, (%) [3, 11]: (6.1) %
Nasopharyngitis, (%) [3, 11]: (5.0) %
Nausea, (%) [3, 11]: (6.1) %
Pain in extremity, (%) [3, 11]: (6.9) %
Serious TEAEs, (%) [3, 11]: (13.7) %
Upper respiratory tract infection, (%) [3, 11]: (8.8) %
lumbar spine BMD versus placebo ([4]; at 6 months and 12 months): statistically significant increase
lumbar spine BMD ([4]; at 18 months): non-statistically significant BMD increase
BMD increase at total hip as compared to teriparatide [4, 12]: significantly greater BMD increase
BMD increase for lumbar spine as compared to teriparatide ([4]; overweight patients, 6 months): significantly greater BMD increase
BMD increase at the femoral neck as compared to teriparatide ([4]; overweight patients, 12 and 18 months): significantly greater BMD increase
BMD increase as compared to placebo [4, 12]: significant improvements
BMD increase as compared to placebo ([4]; overweight patients, 6, 12 and 18 months, listed as abaloparatide): significantly greater BMD increase
BMD in total hip and femoral neck versus teriparatide or placebo ([4]; treated for 18 months): significant BMD increase
CTX marker (bone resorption) ([9]; at 18 months): quick return to the baseline
bone formation marker PINP ([9]; human, in vivo): earlier increase
